According to publication PMC4365270 (Cancer Chemotherapy and Pharmacology, 2015):
“Also recorded” adds a separate entry of the source. Like-named read-outs stand apart in the source and are kept apart here.

Assays:
[1] = system: chemokine ligand 2 (CCL2, MCP1); assay: Plasma CCL2 ELISA; type: in vivo, human
Procedure: cIAP-1 levels were measured in tumor tissue and surrogate tissue as available. Peripheral blood mononuclear cells (PBMCs) were analyzed for DEBIO1143-induced cIAP-1 degradation. Plasma native cytokeratin-18 ([…]) or caspase-3 generated cytokeratin-18 fragments (M30), interleukin 8 (IL8), chemokine ligand 2 (CCL2, MCP1), and tumor necrosis factor α (TNFα) were measured by ELISA as markers of epithelial cell death and inflammation on days 1 (predose, 1, 3, 6, and 12 h postdose), 2, and 5. […] For the detection of cIAP-1 in paraffin-embedded human tissue, a validated immunohistochemical (IHC) assay was used. DEBIO1143-induced cIAP-1 degradation was measured in PBMCs using Western blot. Plasma biomarkers were measured through commercial ELISAs. All laboratory analyses were performed by MPI Research, Inc. (PK) and Mosaic Laboratory, LLC (PD).

[2] = system: various human cancer cell lines; design: method as in PMID 21264751, PMID 22669575; settings: in vitro; cited from earlier work
[3] = design: method as in PMID 23813446; settings: rats; cited from earlier work
[4] = Plasma pharmacokinetics of DEBIO1143 in patients (LC-MS/MS); type: in vivo, human; settings: for AUC(0-t) / Cmax / Tmax / AUC(0-inf) / half-life: human, plasma
Procedure: Pharmacokinetic samples were taken from all patients on day 1 (predose, 0.5, 1, 2, 3, 4, 6, 8, 12, 18 h postdose) and on day 5 (predose, 0.5, 1, 2, 3, 4, 6, 8 h postdose) of the first cycle. In addition, for exploratory PD analysis of IAP inhibition and activation of apoptosis, optional skin and tumor biopsies were taken from consenting patients on days 1 (predose) and 5 and blood samples on day 1 (predose, 1, 3, 6, 8, 12 h postdose), day 2 (predose), and day 5 (3 h postdose).
C max and t max were determined by direct assessment of the observed concentration versus time curves. The area under the curve until the last quantifiable concentration (AUC0−t) was estimated by a linear up/log down method if ≥3 values were available and extrapolated to infinity (AUCinf), if the extrapolated part was <30 %. The terminal elimination half-life (T 1/2) was calculated as the ratio of loge^2 to the apparent terminal phase rate constant (λ z), determined through unweighted linear regression analysis on ≥3 log-transformed concentrations on the linear portion of the terminal slope, excluding the peak concentration. In general, points maximizing R ^2 up to at least 0.9 were included for linear regression.
For the detection of cIAP-1 in paraffin-embedded human tissue, a validated immunohistochemical (IHC) assay was used. […] Plasma biomarkers were measured through commercial ELISAs. All laboratory analyses were performed by MPI Research, Inc. (PK) and Mosaic Laboratory, LLC (PD).

[5] = oral, 80 mg, day 1, n=3, mean (SD)
[6] = oral, 80 mg, day 5, n=3, mean (SD)
[7] = oral, 120 mg, day 1, n=3, mean (SD)
[8] = oral, 120 mg, day 5, n=3, mean (SD)
[9] = oral, 180 mg, day 1, n=7, mean (SD)
[10] = oral, 180 mg, day 5, n=7, mean (SD)
[11] = oral, 260 mg, day 1, n=3, mean (SD)
[12] = oral, 260 mg, day 5, n=3, mean (SD)
[13] = oral, 400 mg, day 1, n=3, mean (SD)
[14] = oral, 400 mg, day 5, n=3, mean (SD)
[15] = oral, 600 mg, day 1, n=3, mean (SD)
[16] = oral, 600 mg, day 5, n=3, mean (SD)
[17] = oral, 900 mg, day 1, n=6, mean (SD)
[18] = oral, 900 mg, day 5, n=6, mean (SD)

CN[C@@H](C)C(=O)N[C@H]1CN(C(=O)CC(C)C)CC[C@H]2CC[C@@H](C(=O)NC(c3ccccc3)c3ccccc3)N2C1=O [DEBIO1143]
Patients with increased plasma CCL2 ([1]; 900 mg): five out of six | Plasma CCL2, mean increase ([1]; 900 mg, six patients): 45% | Plasma CCL2 increase, range ([1]; 900 mg, six patients): −6 to 54% | Plasma CCL2 increase, significance ([1]; 3 and 6 h postdose, p < 0.0001): significant | Patients with increased plasma CCL2 ([1]; all dose levels, 25 patients): 14 | Cell growth [2]: inhibit cell growth | Oral bioavailability [3]: good | Dose proportionality of C max and AUC ([4]; doses 80 to 900 mg): increased proportionally; also recorded: proportional to doses ≥80 mg | Drug levels versus levels active in animal models ([4]; doses of ≥80 mg): exceeded levels that have demonstrated activity in animal models | AUC(0-t) ([4]; oral, 5 mg, day 1, n=1): 19.6 ng·h/mL | Cmax ([4]; oral, 5 mg, day 1, n=1): 6.69 ng/mL | Tmax ([4]; oral, 5 mg, day 1, n=1, read-out: T max): 3 h | AUC(0-t) ([4]; oral, 5 mg, day 5, n=1): 43.4 ng·h/mL | Cmax ([4]; oral, 5 mg, day 5, n=1): 18.5 ng/mL | Tmax ([4]; oral, 5 mg, day 5, n=1, read-out: T max): 1.6 h | AUC(0-inf) ([4]; oral, 10 mg, day 1, n=1): 152 ng·h/mL | AUC(0-t) ([4]; oral, 10 mg, day 1, n=1): 129 ng·h/mL | Cmax ([4]; oral, 10 mg, day 1, n=1): 37.4 ng/mL | half-life ([4]; oral, 10 mg, day 1, n=1, read-out: T 1/2 (converted)): 2.46 h | Tmax ([4]; oral, 10 mg, day 1, n=1, read-out: T max): 1 h | AUC(0-inf) ([4]; oral, 10 mg, day 5, n=1): 117 ng·h/mL | AUC(0-t) ([4]; oral, 10 mg, day 5, n=1): 103 ng·h/mL | Cmax ([4]; oral, 10 mg, day 5, n=1): 26.9 ng/mL | half-life ([4]; oral, 10 mg, day 5, n=1, read-out: T 1/2 (converted)): 2.53 h | Tmax ([4]; oral, 10 mg, day 5, n=1, read-out: T max): 3.5 h | AUC(0-inf) ([4]; oral, 20 mg, day 1, n=1): 643 ng·h/mL | AUC(0-t) ([4]; oral, 20 mg, day 1, n=1): 615 ng·h/mL | Cmax ([4]; oral, 20 mg, day 1, n=1): 126 ng/mL | half-life ([4]; oral, 20 mg, day 1, n=1, read-out: T 1/2 (converted)): 5.44 h | Tmax ([4]; oral, 20 mg, day 1, n=1, read-out: T max): 1 h | AUC(0-inf) ([4]; oral, 20 mg, day 5, n=1): 451 ng·h/mL | AUC(0-t) ([4]; oral, 20 mg, day 5, n=1): 375 ng·h/mL | Cmax ([4]; oral, 20 mg, day 5, n=1): 134 ng/mL | half-life ([4]; oral, 20 mg, day 5, n=1, read-out: T 1/2 (converted)): 3.37 h | Tmax ([4]; oral, 20 mg, day 5, n=1, read-out: T max): 0.5 h | AUC(0-inf) ([4]; oral, 40 mg, day 1, n=1): 2300 ng·h/mL | AUC(0-t) ([4]; oral, 40 mg, day 1, n=1): 2140 ng·h/mL | Cmax ([4]; oral, 40 mg, day 1, n=1): 627 ng/mL | half-life ([4]; oral, 40 mg, day 1, n=1, read-out: T 1/2 (converted)): 6.38 h | Tmax ([4]; oral, 40 mg, day 1, n=1, read-out: T max): 1 h | AUC(0-t) ([4]; oral, 40 mg, day 5, n=1): 1090 ng·h/mL | Cmax ([4]; oral, 40 mg, day 5, n=1): 184 ng/mL | Tmax ([4]; oral, 40 mg, day 5, n=1, read-out: T max): 6.1 h | AUC(0-inf) [4, 5]: 6660 ng·h/mL | AUC(0-t) [4, 5]: 6390 ng·h/mL | Cmax [4, 5]: 1330 ng/mL | half-life ([4]; oral, 80 mg, day 1, n=3, mean (SD), read-out: T 1/2 (converted)): 5.22 h | Tmax ([4]; oral, 80 mg, day 1, n=3, median (min–max), read-out: T max): 2 h | AUC(0-inf) [4, 6]: 5920 ng·h/mL | AUC(0-t) [4, 6]: 5020 ng·h/mL | Cmax [4, 6]: 1670 ng/mL | half-life ([4]; oral, 80 mg, day 5, n=3, mean (SD), read-out: T 1/2 (converted)): 2.69 h | Tmax ([4]; oral, 80 mg, day 5, n=3, median (min–max), read-out: T max): 2 h | AUC(0-inf) [4, 7]: 7460 ng·h/mL | AUC(0-t) [4, 7]: 6890 ng·h/mL | Cmax [4, 7]: 1650 ng/mL | half-life ([4]; oral, 120 mg, day 1, n=3, mean (SD), read-out: T 1/2 (converted)): 6.39 h | Tmax ([4]; oral, 120 mg, day 1, n=3, median (min–max), read-out: T max): 1 h | AUC(0-inf) [4, 8]: 6770 ng·h/mL | AUC(0-t) [4, 8]: 5430 ng·h/mL | Cmax [4, 8]: 1190 ng/mL | half-life ([4]; oral, 120 mg, day 5, n=3, mean (SD), read-out: T 1/2 (converted)): 2.61 h | Tmax ([4]; oral, 120 mg, day 5, n=3, median (min–max), read-out: T max): 2 h | AUC(0-inf) [4, 9]: 11400 ng·h/mL | AUC(0-t) [4, 9]: 10600 ng·h/mL | Cmax [4, 9]: 2130 ng/mL | half-life ([4]; oral, 180 mg, day 1, n=7, mean (SD), read-out: T 1/2 (converted)): 6.06 h | Tmax ([4]; oral, 180 mg, day 1, n=7, median (min–max), read-out: T max): 2 h | AUC(0-inf) [4, 10]: 9980 ng·h/mL | AUC(0-t) [4, 10]: 7210 ng·h/mL | Cmax [4, 10]: 2160 ng/mL | half-life ([4]; oral, 180 mg, day 5, n=7, mean (SD), read-out: T 1/2 (converted)): 4.14 h | Tmax ([4]; oral, 180 mg, day 5, n=7, median (min–max), read-out: T max): 2 h | AUC(0-inf) [4, 11]: 17900 ng·h/mL | AUC(0-t) [4, 11]: 16300 ng·h/mL | Cmax [4, 11]: 2890 ng/mL | half-life ([4]; oral, 260 mg, day 1, n=3, mean (SD), read-out: T 1/2 (converted)): 6.59 h | Tmax ([4]; oral, 260 mg, day 1, n=3, median (min–max), read-out: T max): 3 h | AUC(0-inf) [4, 12]: 11700 ng·h/mL | AUC(0-t) [4, 12]: 10600 ng·h/mL | Cmax [4, 12]: 2760 ng/mL | half-life ([4]; oral, 260 mg, day 5, n=3, mean (SD), read-out: T 1/2 (converted)): 3.29 h | Tmax ([4]; oral, 260 mg, day 5, n=3, median (min–max), read-out: T max): 2 h | AUC(0-inf) [4, 13]: 27000 ng·h/mL | AUC(0-t) [4, 13]: 25000 ng·h/mL | Cmax [4, 13]: 5280 ng/mL | half-life ([4]; oral, 400 mg, day 1, n=3, mean (SD), read-out: T 1/2 (converted)): 6.27 h | Tmax ([4]; oral, 400 mg, day 1, n=3, median (min–max), read-out: T max): 1 h | AUC(0-inf) [4, 14]: 26500 ng·h/mL | AUC(0-t) [4, 14]: 20100 ng·h/mL | Cmax [4, 14]: 5540 ng/mL | half-life ([4]; oral, 400 mg, day 5, n=3, mean (SD), read-out: T 1/2 (converted)): 3.7 h | Tmax ([4]; oral, 400 mg, day 5, n=3, median (min–max), read-out: T max): 0.5 h | AUC(0-inf) [4, 15]: 28700 ng·h/mL | AUC(0-t) [4, 15]: 27000 ng·h/mL | Cmax [4, 15]: 5780 ng/mL | half-life ([4]; oral, 600 mg, day 1, n=3, mean (SD), read-out: T 1/2 (converted)): 5.75 h | Tmax ([4]; oral, 600 mg, day 1, n=3, median (min–max), read-out: T max): 1.1 h | AUC(0-inf) [4, 16]: 25000 ng·h/mL | AUC(0-t) [4, 16]: 20200 ng·h/mL | Cmax [4, 16]: 7110 ng/mL | half-life ([4]; oral, 600 mg, day 5, n=3, mean (SD), read-out: T 1/2 (converted)): 3.54 h | Tmax ([4]; oral, 600 mg, day 5, n=3, median (min–max), read-out: T max): 1 h | AUC(0-inf) [4, 17]: 61500 ng·h/mL | AUC(0-t) [4, 17]: 56100 ng·h/mL | Cmax [4, 17]: 10100 ng/mL | half-life ([4]; oral, 900 mg, day 1, n=6, mean (SD), read-out: T 1/2 (converted)): 7.11 h | Tmax ([4]; oral, 900 mg, day 1, n=6, median (min–max), read-out: T max): 1.5 h | AUC(0-inf) [4, 18]: 47000 ng·h/mL | AUC(0-t) [4, 18]: 36900 ng·h/mL | Cmax [4, 18]: 10300 ng/mL | half-life ([4]; oral, 900 mg, day 5, n=6, mean (SD), read-out: T 1/2 (converted)): 3.15 h | Tmax ([4]; oral, 900 mg, day 5, n=6, median (min–max), read-out: T max): 1.5 h | half-life ([4]; oral, all doses, read-out: Average T 1/2 (converted)): ~6 h | Tmax ([4]; oral, all doses, read-out: Average t max): ~1 h | half-life ([4]; oral, day 1, regardless of the dose, read-out: Mean T 1/2, range across doses): 5.2 to 7.1 h | Tmax ([4]; po, after oral intake, read-out: Time to peak plasma concentrations): 1 to 3 h
